From patent US10633389B2, “CARM1 inhibitors and uses thereof” (Epizyme, Inc., priority 2013, dated 2020)
pIC50: −log10 of the molar value.

Tested on: asymmetric di-methyl PABP1 in RKO cells
Assay: RKO methylation assay, In Cell Western (ICW) for asymmetric di-methyl PABP1
Type: cell-based
Details: Homo sapiens, RKO, Cellular potencies, ICW PABP1me2a
Outline: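 In-cell Western on fixed RKO cells after 48 h compound exposure: anti-asymmetric di-methyl PABP1 signal at 800 nm over DRAQ5 DNA signal at 700 nm. Percent inhibition set between DMSO wells and wells with 20 μM reference compound; IC50 curves fitted in triplicate.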

Row | Compound | pIC50
1 | CNC[C@@H](O)COc1ccc(Cl)c(-c2nc(N[C@H]3CCO[C@@H](C)C3)c(C)c(-c3c(C)noc3C)n2)c1 [Example 128-3] | > 5.30
2 | CCOC(=O)N1CC[C@@H](Nc2nc(-c3cc(OC[C@H](O)CNC)ccc3Cl)nc(-c3c(C)noc3C)c2Cl)C1 [Example 129-3] | > 5.30
3 | CNC[C@@H](O)COc1ccc(Cl)c(-c2nc(NC[C@H]3CCCO3)c(C)c(-c3c(C)noc3C)n2)c1 [Example 130-3] | > 5.30
4 | CNCC(O)COc1cccc(-c2nc(-c3c(C)noc3C)cc(N3CCNC(C(F)(F)F)C3)n2)c1 (stereo not shown) [Example 131-1a] | > 5.30
5 | CNC[C@@H](O)COc1ccc(Cl)c(-c2nc(NC[C@@H]3CCCO3)c(C)c(-c3c(C)noc3C)n2)c1 [Example 131-3] | > 5.30
6 | CNCC(O)COc1cccc(-c2nc(-c3c(C)noc3C)cc(N3CCN(CC(F)(F)F)CC3)n2)c1 (stereo not shown) [Example 132-1a] | > 5.30
7 | CNC[C@@H](O)COc1ccc(Cl)c(-c2nc(N[C@@H]3CCO[C@H](C)C3)c(C)c(-c3c(C)noc3C)n2)c1 [Example 132-3] | > 5.30
8 | CNCC(O)COc1cccc(-c2nc(-c3c(C)noc3C)cc(N3CCN(C(=O)C4CC4)CC3)n2)c1 (stereo not shown) [Example 133-1a] | > 5.30
9 | CCOC(=O)N1CCC[C@@H]1COc1nc(-c2cc(OC[C@H](O)CNC)ccc2Cl)nc(-c2c(C)noc2C)c1C [Example 133-3] | > 5.30
10 | CNCC(O)COc1cccc(-c2nc(-c3c(C)noc3C)c(C)c(N3CCN(C(=O)OCCOC)CC3)n2)c1 (stereo not shown) [Example 134-1a] | > 5.30
11 | CNC[C@@H](O)COc1ccc(Cl)c(-c2nc(NC[C@H]3COCCN3C(=O)OC(C)C)c(C)c(-c3c(C)noc3C)n2)c1 [Example 134-3] | > 5.30
12 | CNCC(O)COc1cccc(-c2nc(N[C@H]3CC[C@H](O)C3)c(C)c(-c3c(C)noc3C)n2)c1 (stereo partly shown) [Example 135-1a] | > 5.30
13 | CNC[C@@H](O)COc1ccc(Cl)c(-c2nc(N[C@@H]3CCN(C(=O)OC)[C@H](C)C3)c(C)c(-c3c(C)noc3C)n2)c1 [Example 135-3] | > 5.30
14 | CNCC(O)COc1cc(NC)cc(-c2nc(NC3CCOCC3)c(C)c(-c3c(C)noc3C)n2)c1 (stereo not shown) [Example 136-1a] | > 5.30
15 | CCOC(=O)N1CCC[C@@H]1CCNc1nc(-c2cc(OC[C@H](O)CNC)ccc2Cl)nc(-c2c(C)noc2C)c1C [Example 136-3] | > 5.30
16 | CNCC(O)COc1ccc(Cl)c(-c2nc(NC3(C)CCOCC3)c(Cl)c(-c3c(C)noc3C)n2)c1 (stereo not shown) [Example 137-1a] | > 5.30
17 | CCOC(=O)N1CCC[C@H]1CCNc1nc(-c2cc(OC[C@H](O)CNC)ccc2Cl)nc(-c2c(C)noc2C)c1C [Example 137-3] | > 5.30
18 | CNC[C@@H](O)COc1ccc(Cl)c(-c2nc(-c3c(C)noc3C)c(C)c(N3CCC4(CCN(C5CC5)C4)C3)n2)c1 (stereo partly shown) [Example 138-3] | > 5.30
19 | CNCC(O)COc1cccc(-c2nc(-c3c(C)noc3C)cc(N3CCN(CCOC)CC3)n2)c1 (stereo not shown) [Example 139-1a] | > 5.30
20 | CNC[C@@H](O)COc1ccc(Cl)c(-c2nc(N[C@@H]3CCN(C4CC4)[C@H](C)C3)c(C)c(-c3c(C)noc3C)n2)c1 [Example 139-3] | > 5.30
21 | CNCC(O)COc1cccc(-c2nc(NCC3(N(C)C)CCOCC3)c(C)c(-c3c(C)noc3C)n2)c1 (stereo not shown) [Example 140-1a] | > 5.30
22 | CNC[C@@H](O)COc1ccc(Cl)c(-c2nc(-c3c(C)noc3C)c(C)c(N3Cc4cnn(C)c4C3)n2)c1 [Example 140-3] | > 5.30

Row | Compound | pIC50
23 | CCC1(CNc2nc(-c3cccc(OCC(O)CNC)c3)nc(-c3c(C)noc3C)c2C)CCOCC1 (stereo not shown) [Example 141-1a] | > 5.30
24 | CNC[C@@H](O)COc1ccc(Cl)c(-c2nc(-c3c(C)noc3C)c(C)c(N3CCc4nc(C)sc4C3)n2)c1 [Example 141-3] | > 5.30
25 | CNCC(O)COc1cccc(-c2nc(NCC3CCOCC3)c(Cl)c(-c3c(C)noc3C)n2)c1 (stereo not shown) [Example 142-1a] | > 5.30
26 | CNC[C@@H](O)COc1ccc(Cl)c(-c2nc(-c3c(C)noc3C)c(C)c(N3Cc4nccnc4C3)n2)c1 [Example 142-3] | > 5.30
27 | CNCC(O)COc1cccc(-c2nc(NCC3CCOCC3)c(F)c(-c3c(C)noc3C)n2)c1 (stereo not shown) [Example 143-1a] | > 5.30
28 | CNC[C@@H](O)COc1ccc(Cl)c(-c2nc(N[C@H]3C[C@H](OC)C3)c(C)c(-c3c(C)noc3C)n2)c1 [Example 143-3] | > 5.30
29 | CNCC(O)COc1cccc(-c2nc(-c3c(C)noc3C)cc(N3CCN(CC(F)(F)F)[C@H](C)C3)n2)c1 (stereo partly shown) [Example 144-1a] | > 5.30
30 | CNC[C@@H](O)COc1ccc(Cl)c(-c2nc(N[C@H]3C[C@@H](OC)C3)c(C)c(-c3c(C)noc3C)n2)c1 [Example 144-3] | > 5.30
31 | CNCC(O)COc1cccc(-c2nc(-c3c(C)noc3C)cc(N3CCN(CCF)[C@H](C)C3)n2)c1 (stereo partly shown) [Example 145-1a] | 5.00 to 5.30
32 | CNCC(O)COc1cccc(-c2nc(NC3CCOCC3)c(C)c(-c3c(C)noc3CO)n2)c1 (stereo not shown) [Example 145-3] | 4.70 to 5.00
33 | CNCC(O)COc1cccc(-c2nc(-c3c(C)noc3C)cc(N3CCN(C(=O)N(C)C)[C@H](C)C3)n2)c1 (stereo partly shown) [Example 146-1a] | > 5.30
34 | CNC[C@@H](O)COc1ccc(Cl)c(-c2nc(NC3CC4(C3)CN(C(=O)OC)C4)c(C)c(-c3c(C)noc3C)n2)c1 [Example 146-3] | > 5.30
35 | CNCC(O)COc1cccc(-c2nc(-c3c(C)noc3C)cc(N3CCN(S(C)(=O)=O)[C@H](C)C3)n2)c1 (stereo partly shown) [Example 147-1a] | > 5.30
36 | CNC[C@@H](O)COc1ccc(Cl)c(-c2nc(N[C@H]3CCN(C)C[C@H]3F)c(C)c(-c3c(C)noc3C)n2)c1 [Example 147-3] | > 5.30
37 | CNCC(O)COc1cccc(-c2nc(-c3c(C)noc3C)c(C)c(N3CCO[C@@H](CN(C)C)C3)n2)c1 (stereo partly shown) [Example 148-1a] | > 5.30
38 | CNC[C@@H](O)COc1ccc(Cl)c(-c2nc(N[C@H]3CO[C@@H](C)C3)c(Cl)c(-c3c(C)noc3C)n2)c1 [Example 148-3] | > 5.30
39 | CNCC(O)COc1cccc(-c2nc(-c3c(C)noc3C)c(C)c(N3CCO[C@@H](CN(C)C(=O)OC)C3)n2)c1 (stereo partly shown) [Example 149-1a] | > 5.30
40 | CNC[C@@H](O)COc1ccc(Cl)c(-c2nc(N[C@H]3CCO[C@@H](C)C3)c(Cl)c(-c3c(C)noc3C)n2)c1 [Example 149-3] | > 5.30
41 | CNCC(O)COc1cccc(-c2nc(-c3c(C)noc3C)c(C)c(N3CCO[C@@H](CN(C)S(C)(=O)=O)C3)n2)c1 (stereo partly shown) [Example 150-1a] | 5.00 to 5.30
42 | CCOC(=O)N1CC[C@H](Nc2nc(-c3cc(OC[C@H](O)CNC)ccc3Cl)nc(-c3c(C)noc3C)c2C)C1 [Example 150-3] | > 5.30
43 | CNCC(O)COc1cccc(-c2nc(-c3c(C)noc3C)c(C)c(N3CCO[C@H](CN(C)C)C3)n2)c1 (stereo partly shown) [Example 151-1a] | > 5.30
44 | CCOC(=O)N1CC[C@H](Nc2nc(-c3cc(OC[C@H](O)CNC)ccc3Cl)nc(-c3c(C)noc3C)c2Cl)C1 [Example 151-3] | > 5.30

Row | Compound | pIC50
45 | CC[C@@H]1CN(c2nc(-c3cccc(OCC(O)CNC)c3)nc(-c3c(C)noc3C)c2C)CCN1S(=O)(=O)CC (stereo partly shown) [Example 152-1a] | > 5.30
46 | CNC[C@@H](O)COc1ccc(Cl)c(-c2nc(N[C@H]3CO[C@@H](C)C3)c(C)c(-c3c(C)noc3C)n2)c1 [Example 152-3] | > 5.30
47 | CC[C@@H]1CN(c2nc(-c3cccc(OCC(O)CNC)c3)nc(-c3c(C)noc3C)c2C)CCN1S(C)(=O)=O (stereo partly shown) [Example 153-1a] | > 5.30
48 | CCOC(=O)N1CCCC[C@@H]1CNc1nc(-c2cc(OC[C@H](O)CNC)ccc2Cl)nc(-c2c(C)noc2C)c1Cl [Example 153-3] | > 5.30
49 | CC[C@H]1CN(c2nc(-c3cccc(OCC(O)CNC)c3)nc(-c3c(C)noc3C)c2C)CCN1S(=O)(=O)CC (stereo partly shown) [Example 154-1a] | > 5.30
50 | CCOC(=O)N1CCCC[C@@H]1CNc1nc(-c2cc(OC[C@H](O)CNC)ccc2Cl)nc(-c2c(C)noc2C)c1C [Example 154-3] | > 5.30
51 | CC[C@H]1CN(c2nc(-c3cccc(OCC(O)CNC)c3)nc(-c3c(C)noc3C)c2C)CCN1S(C)(=O)=O (stereo partly shown) [Example 155-1a] | > 5.30
52 | CNC[C@@H](O)COc1ccc(Cl)c(-c2nc(N[C@@H]3CCO[C@H](C)C3)c(Cl)c(-c3c(C)noc3C)n2)c1 [Example 155-3] | > 5.30
53 | CNC[C@@H](O)COc1cccc(-c2nc(-c3c(C)noc3C)c(C)c(-c3cn(S(C)(=O)=O)c4ncncc34)n2)c1 [Example 156-1a] | 5.00 to 5.30
54 | CNC[C@@H](O)COc1ccc(Cl)c(-c2nc(-c3c(C)noc3C)c(C)c(N3Cc4cc(Cl)cnc4C3)n2)c1 [Example 156-3] | > 5.30
55 | CNCC(O)COc1cccc(-c2nc(NC(C)C3CCOCC3)c(C)c(-c3c(C)noc3C)n2)c1 (stereo not shown) [Example 157-1a] | > 5.30
56 | CNC[C@@H](O)COc1ccc(Cl)c(-c2nc(-c3c(C)noc3C)c(C)c(N3Cc4cc(F)cnc4C3)n2)c1 [Example 157-3] | > 5.30
57 | CNC[C@@H](O)COc1ccc(Cl)c(-c2nc(-c3c(C)noc3C)c(C)c(N3CCC4(CC3)CN(C3CC3)C4)n2)c1 [Example 158-3] | > 5.30
58 | CNCC(O)COc1cccc(-c2nc(NC3(C)CCOCC3)c(F)c(-c3c(C)noc3C)n2)c1 (stereo not shown) [Example 159-1a] | 4.70 to 5.00
59 | CNC[C@@H](O)COc1ccc(Cl)c(-c2nc(-c3c(C)noc3C)c(C)c(N3Cc4ccncc4C3)n2)c1 [Example 159-3] | > 5.30
60 | CNCC(O)COc1cccc(-c2nc(C(=O)NC3CCN(C)CC3)cc(-c3c(C)noc3C)n2)c1 (stereo not shown) [Example 160-1a] | 4.70 to 5.00
61 | CNC[C@@H](O)COc1ccc(Cl)c(-c2nc(NC[C@H]3CCCN3C(=O)OC(C)C)c(C)c(-c3c(C)noc3C)n2)c1 [Example 160-3] | > 5.30
62 | CNCC(O)COc1cccc(-c2nc(-c3c(C)noc3C)c(C)c(N3CCN(C(=O)OCC(F)F)CC3)n2)c1 (stereo not shown) [Example 161-1a] | > 5.30
63 | CCOC(=O)N1CCOC[C@@H]1COc1nc(-c2cc(OC[C@H](O)CNC)ccc2Cl)nc(-c2c(C)noc2C)c1C [Example 161-3] | > 5.30
64 | CNCC(O)COc1cccc(-c2nc(-c3c(C)noc3C)c(C)c(N3CC[C@H](C(=O)N(C)C)C3)n2)c1 (stereo partly shown) [Example 162-1a] | > 5.30
